“Also recorded” adds a separate entry of the source.
System: NCI-60 cell lines
Assay type: cell-based, human

Substance	Cell Line (NCI-60 cell line the peptide and its motif are associated with)	Cell Line the peptide is associated with (peptide recovered from phage library selection on this NCI-60 cell line)	Cell Line with which the peptide (and its tripeptide motif) is associated	Cell Line (NCI-60 cell line the peptide is associated with)
SGVSISC	IGROV1 Ovarian	–	–	–
SGVSNPG	–	MDA-MB-231 Breast	–	–
SGVSRGQ	–	–	Hop-92-Lung	–
SGVSVEG	–	–	Hop-62-Lung	–
SGWFAGS	SK-OV-3-3 Ovarian	–	–	–
SHCGPSN	–	–	–	SF-295 CNS
SHHRSSI	–	SN12C Renal	–	–
SHRSSTG	–	T-47D Breast	–	–
SHRVSDS	–	–	K-562-Leukemia	–
SHTAGGG	PC3 Prostate	–	–	–
SIGPSTN	–	–	H460-Lung	–
SITRGGL	DU-145 Prostate	–	–	–
SKAVLRS	SK-MEL-2 Melanoma	–	–	–
SKYNLRS	–	–	–	HT-29 Colon
SKYRLRS	–	–	RPMI-8226-Leukemia	–
SLGGRTF	–	–	–	SNB-75 CNS
SLGLGGL	OVCAR-5 Ovarian	–	–	–
SLGLRNQ	–	–	CCRF-CEM Leukemia	–
SLGSVGS	–	–	EKVX-Lung	–
SLLRRLE	–	TK-10 Renal	–	–
SLRGSEG	–	–	Hop-92-Lung	–
SLRGVRV	UACC62 Melanoma	–	–	–
SLRSDGA	–	–	–	HCT-15 Colon
SLRSGIV	–	–	EKVX-Lung	–
SLTRAVR	–	–	Hop-92-Lung	–

Substance	Cell Line (NCI-60 cell line the peptide and its motif are associated with)	Cell Line the peptide is associated with (peptide recovered from phage library selection on this NCI-60 cell line)	Cell Line with which the peptide (and its tripeptide motif) is associated	Cell Line (NCI-60 cell line the peptide is associated with)
SLVSERA	–	HS 578 T Breast	–	–
SLVSPRT	OVCAR-5 Ovarian	–	–	–
SLYGLRW	M14 Melanoma	–	–	–
SLYRGRL	–	T-47D Breast	–	–
SMRGVLS	–	BT-549 Breast	–	–
SNARGPR	–	–	K-562-Leukemia	–
SNFYGSS	M14 Melanoma	–	–	–
SNGLRVV	–	ACHN Renal	–	–
SNHTASL	–	–	–	SF-295 CNS
SNPGSGS	UACC62 Melanoma	–	–	–
SPGRVAD	IGROV1 Ovarian	–	–	–
SPGVSGR	–	–	–	SW620-Colon
SPTGGRR	–	–	–	LOX-IMVI Melanoma
SQFGPSF	SK-OV-3-3 Ovarian	–	–	–
SQSGGRH	–	–	Molt-4-Leukemia	–
SRASDVT	–	–	–	SW620-Colon
SRASGHG	–	–	–	HT-29 Colon
SRAVIDM	–	–	CCRF-CEM Leukemia	–
SRAVIRL	OVCAR-5 Ovarian	–	–	–
SRFGPSV	–	–	H322-Lung	–
SRFRVSI	–	–	CCRF-CEM Leukemia	–
SRGSTAG	–	–	H322-Lung	–
SRGSYGS	–	MDA-MB-435-Breast	–	–
SRHGLVR	–	–	–	HCT-15 Colon
SRKGLRS	786-0 Renal	–	–	–

Substance	Cell Line (NCI-60 cell line the peptide and its motif are associated with)	Cell Line the peptide is associated with (peptide recovered from phage library selection on this NCI-60 cell line)	Cell Line with which the peptide (and its tripeptide motif) is associated	Cell Line (NCI-60 cell line the peptide is associated with)
SRLRAGS	–	T-47D Breast	–	–
SRLSYCN	OVCAR-4 Ovarian	–	–	–
SRLSYRA	786-0 Renal	–	–	–
SRLSYRG	–	–	RPMI-8226-Leukemia	–
SRLSYRS	–	–	A549-Lung	–
SRLSYRT	–	TK-10 Renal	–	–
SRLSYWQ	–	–	–	LOX-IMVI Melanoma
SRLSYYA	–	–	–	KM-12C Colon
SRSCGGL	–	–	–	LOX-IMVI Melanoma
SRSGRLN	SK-MEL-2 Melanoma	–	–	–
SRVSFHE	–	–	–	MALME-3M Melanoma
SRVSNPS	SK-MEL-2 Melanoma	–	–	–
SRYGLRR	–	–	RPMI-8226-Leukemia	–
SRYGVLV	–	–	EKVX-Lung	–
SRYSLRS	–	–	A549-Lung	–
SRYTLRS	IGROV1 Ovarian	–	–	–
SRYWLRS	–	–	H522-Lung	–
SSGGRSS	–	–	–	MALME-3M Melanoma
SSGGVLG	–	–	H460-Lung	–
SSGPRSS	–	–	Hop-62-Lung	–
SSGSSNG	–	–	K-562-Leukemia	–
SSGSVDS	–	–	H322-Lung	–
SSLLSSL	SK-MEL-2 Melanoma	–	–	–
SSRGGSS	–	–	–	MALME-3M Melanoma
SSRMGLV	–	–	SR Leukemia	–

Substance	Cell Line (NCI-60 cell line the peptide and its motif are associated with)	Cell Line the peptide is associated with (peptide recovered from phage library selection on this NCI-60 cell line)	Cell Line with which the peptide (and its tripeptide motif) is associated	Cell Line (NCI-60 cell line the peptide is associated with)
SSRPGSS	–	–	Hop-62-Lung	–
SSSLAGS	–	UO31 Renal	–	–
SSTRGVY	–	–	–	HT-29 Colon
SSVASLV	–	–	–	SNB-19 CNS; also recorded: SF-539 CNS
STEGGGL	–	–	Molt-4-Leukemia	–
STSLGAG	–	–	H322-Lung	–
SVDRGVI	–	–	–	LOX-IMVI Melanoma
SVEGRGV	–	–	A549-Lung	–
SVGAVGG	–	–	A549-Lung	–
SVHLVSG	–	HS 578 T Breast	–	–
SVLGGRL	–	–	EKVX-Lung	–
SVLGSSL	–	–	H460-Lung	–
SVRVGSG	SK-MEL-28 Melanoma	–	–	–
SVSGAGS	OVCAR-5 Ovarian	–	–	–
SVSRGRV	–	A498 Renal	–	–
SVTGRVS	786-0 Renal	–	–	–
SVTGSVG	IGROV1 Ovarian	–	–	–
SVVGVST	–	–	–	HCT-15 Colon
SVVLAGS	–	–	–	LOX-IMVI Melanoma
SVVRRGS	–	ACHN Renal	–	–
SVYALRS	–	–	–	COLO-205-Colon
SWAGVRF	OVCAR-5 Ovarian	–	–	–

Reference: patent US7781565B2 (priority 2006, dated 2010)
